Patent publication US20130172346A1, “USE OF KYNURENIC ACID AMIDE DERIVATIVES FOR THE TREATMENT OF HUNTINGTON'S DISEASE” (priority 2010, published 2013)
Entries after “also recorded” stand apart in the source; their conditions may differ.

Legend:
[1] = test system: N171-82Q transgenic mice; experiment: Body weight measurements; type: in vivo, mouse; settings: 100 mg/kg i.p., weekly measurement from age of 7 weeks; p=0.00022
Description: (§1) The transgenic N171-82Q mice were originally obtained from Jackson Laboratories (Bar Harbor, Me., United States), later we have propagated them in our laboratories by using B6C3F1 background strains. The progeny were genotyped by PCR technique from tail-DNA. The animals were kept in transgenic cages under standard laboratory conditions (up to 5 animals/cage), and had free access to water and food. Male and female transgenic and wild type animals respectively, were equally allotted to the individual test groups. The transgenic animals were injected intraperitoneally (5 ml/kg of body weight) every day at the same time with 2-(2-N,N-dimethylaminoethylamino-1-carbonyl)-1H-quinolin-4-one hydrochloride (at a dose of 100 mg/kg of body weight, dissolved in distilled water, pH was adjusted to 6.5 with 1N NaOH). The control transgenic and wild animals, respectively obtained a salt solution comprising 0.1 M of phosphate buffer (PBS) (5 ml/kg of body weight). The animals were inoculated in the first 5 days of the week starting from the age of 7 weeks.
(§2) The body weight of the animals was measured once a week, always at the same day of the week and at the same time of the day, starting from the age of 7 weeks. […]

[2] = test system: N171-82Q transgenic mice; experiment: Open-field test for examining motor activity (covered distance); type: in vivo, mouse
Description: as §1
A test method almost identical with the method disclosed for the survival test was used with the exception of the number of animals (n=9, n=8, n=8 corresponding to the above group assignment). The spontaneous motor activity of the mice was tested once a week 2 hours after the given daily inoculation, always at the same day of the week. The animals stayed in the test unit (48×48×40 cm box open from above) for 5 minutes, the motor parameters were registered by the aid of Conducta 1.0 software (Experimetria Ltd., Budapest, Hungary). In order to characterize the motor activity, the parameter of the covered distance was selected and the data of the examined 9 weeks (between the age of 7 and 15 weeks) were evaluated as follows: an average of the first, second, third 3 weeks was calculated for each test group and the three test groups were compared according to the obtained average values.
(§3) The statistical analysis of our data was performed by using Statistica software (StatSoft Inc., (2008) STATISTICA version 8.0.; www.statsoft.com). The analysis of the survival data was carried out by Kaplan-Meyer survival curves and Mantel-Cox log rank test. The normality of the data of the open-field test, the body weight measurement and the striatal cell volume measurement was first examined by Shapiro-Wilk W test. […] The significance level was determined at p<0.05. In case of normal distribution an average±S.E.M and in case of non-normal distribution the median and the interquartile range were used in order to depict the data

[3] = test system: N171-82Q transgenic mice; experiment: Survival test in N171-82Q transgenic mouse model of Huntington's disease; type: in vivo; settings: p=0.016
Description: as §1
The transgenic animals were inoculated as disclosed above with 2-(2-N,N-dimethylamino-ethylamino-1-carbonyl)-1H-quinolin-4-one hydrochloride (n=10), and the transgenic animals serving as a control, were inoculated with 0.1 M PBS (n=10) until the animals perished. As negative control wild type animals, treated with 0.1M PBS were used (n=10).
as §3

[4] = test system: neurons of the striatum of N171-82Q transgenic mice; experiment: Immunohistochemistry with cell volume estimation of striatal neurons; type: in vivo, mouse; settings: 100 mg/kg i.p.
Description: as §1, §2

[5] = test system: organic anion transporters; settings: mediated by organic anion transporters; cited from earlier work
[6] = cited from earlier work

| SMILES | body weight compared to the control transgenic animals [1] | covered distance, last 3 weeks ([2]; 100 mg/kg i.p., last 3 weeks of treatment, p=0.0094) | covered distance, second 3 weeks ([2]; 100 mg/kg i.p., second 3 weeks) | covered distance, first 3 weeks ([2]; 5 minutes, 2 hours after daily inoculation, 100 mg/kg i.p., first 3 weeks (from age of 7 weeks)) | covered distance in progress of time ([2]; N171-82Q transgenic mice, FIG. 2) | average survival time ([3]; N171-82Q transgenic mice, intraperitoneal, chronic, 100 mg/kg, n=10, control transgenic 111.3±6.6 days) [days] | survival compared to the control groups (Kaplan-Meier) ([3]; N171-82Q transgenic mice, FIG. 1) | improvement of average survival time ([3]; vs control transgenic animals, intraperitoneal, chronic, 100 mg/kg) [%] | size (volume) of the neurons in the striatum ([4]; treated transgenic animals at age of 16 weeks, interquartile range 716.2-787.4, untreated transgenic 663.4, wild type 739.0) [μm^3] | atrophy of the neurons in the striatum ([4]; treated vs untreated N171-82Q transgenic animals, hydrochloride, 100 mg/kg) | elimination from the brain and organism [5] | solubility [6] |
| --- | --- | --- | --- | --- | --- | --- | --- | --- | --- | --- | --- | --- |
| CN(C)CCNC(=O)c1cc(=O)c2ccccc2[nH]1.Cl [2-(2-N,N-dimethylaminoethylamino-1-carbonyl)-1H-quinolin-4-one hydrochloride] | significantly increased | significant improvement | positive changes | has not improved | significant improvement | 145.5 ± 12.0 | significantly increased | 30.7 | 744.5 | successfully prevented the atrophy; also recorded: prevented the development of atrophy | – | – |
| O=C(O)c1cc(=O)c2ccccc2[nH]1 [KYNA, kynurenic acid] | – | – | – | – | – | – | – | – | – | – | rapidly eliminated | poor |
